Test results as given in publication PMC11858884 (Plants, 2025).
Read-outs that look alike come from different tables or passages of the source.

Experiments:
mushroom tyrosinase [1] = assay: Tyrosinase inhibition assay (spectrophotometric, L-tyrosine, dopachrome at 495 nm); assay type: biochemical, Agaricus bisporus; conditions: mushroom tyrosinase 100 U/mL, 1 mM L-tyrosine, 37 °C; mean of three experiments; read-out: Tyrosinase inhibitory activity IC50±SD
Method: The tyrosinase inhibitory activity was evaluated using a method previously described with slight modification (for details, see the Supporting Materials). […]
Tyrosinase inhibition assay
30 microliters of the sample (final concentrations of 50, 100, 200 µM) and 50 µL of 100 U/mL mushroom tyrosinase were treated in 96-well plates and incubated at 37 ◦C for 15 min. Subsequently, 50 µL of 1 mM L-tyrosine was added and then reacted at 37 ◦C for 15 min. The amount of dopachrome formed was measured at 495 nm using Thermo Scientific™ Multiskan SkyHig h Microplate Spectrophotometer. Each sample has been tested in triplicate and the tyrosinase inhibitory activity was calculated using the following equation:
Tyrosinase inhibitory activity (I%) = [1 − (S − S0)/ (C − C0)] × 100 where S is the absorbance of the sample, tyrosinase, and L-tyrosine; S0 is the absorbance of the sample and L-tyrosine; C is the absorbance of tyrosinase and L-tyrosine, and C0 is the absorbance of L-tyrosine (negative […]
control). […] IC50 values were calculated through a linear regression and expressed as means ± SD (standard deviation). They were considered statistically significant with values of p < 0.05. […]

[2] = molecular target: T1, AchE (from Electrophorus electricus) (Electrophorus electricus, UniProt O42275); assay: biochemical
T1 construct: purchased Sigma-Aldrich (Milan, Italy)
T1 sequence (O42275 24-633): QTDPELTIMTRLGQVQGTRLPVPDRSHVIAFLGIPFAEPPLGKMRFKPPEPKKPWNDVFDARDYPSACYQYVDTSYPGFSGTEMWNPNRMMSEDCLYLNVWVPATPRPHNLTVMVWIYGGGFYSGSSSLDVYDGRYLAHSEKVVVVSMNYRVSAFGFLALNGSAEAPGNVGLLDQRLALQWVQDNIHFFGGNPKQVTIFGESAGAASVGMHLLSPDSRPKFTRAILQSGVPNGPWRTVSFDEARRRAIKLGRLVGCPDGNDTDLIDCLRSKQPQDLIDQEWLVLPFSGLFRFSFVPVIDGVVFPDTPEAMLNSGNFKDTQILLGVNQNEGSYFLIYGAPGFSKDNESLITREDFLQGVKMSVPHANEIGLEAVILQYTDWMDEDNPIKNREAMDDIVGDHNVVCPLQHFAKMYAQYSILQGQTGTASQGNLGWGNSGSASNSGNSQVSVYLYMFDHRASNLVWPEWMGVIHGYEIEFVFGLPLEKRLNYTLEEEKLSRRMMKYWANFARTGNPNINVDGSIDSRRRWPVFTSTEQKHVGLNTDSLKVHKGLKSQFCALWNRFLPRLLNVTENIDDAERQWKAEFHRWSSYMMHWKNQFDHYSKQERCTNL
Method: The acetylcholinesterase (AchE) inhibitory activity was evaluated using a method described by Balkrishna et al. with slight modification (for details, see the Supporting Materials). […]
[…] IC50 values were calculated through a linear regression and expressed as means ± SD (standard deviation). They were considered statistically significant with values of p < 0.05.
Acetylcholinesterase inhibition assay
The assay mechanism forecasts that the AchE enzyme hydrolyses the substrate acetylthiocholine, resulting in the product “thiocholine” which reacts with Ellman’s reagent (5,5’-dithio-bis-(2-nitrobenzoic acid), DTNB) to produce 2-nitrobenzoate-5-mercaptothiocholine and 5-thio-2-nitrobenzoate (TNB); the latter can be detected at 415 nm. 150 µL of phosphate buffer (0.1 M), 20 microliters of the sample (final concentrations of 100, 200, […]
300 µM) and 20 µL of 0.2 U/mL AchE (from Electrophorus electricus) were treated in 96-well plates and […]

mushroom tyrosinase [3] = assay: Tyrosinase inhibition kinetics study (Lineweaver-Burk plot); assay type: biochemical, Agaricus bisporus
Method: Kinetic analysis of the tyrosinase enzyme for compound 13 was carried out using the Lineweaver–Burk double reciprocal plot. […] At 37 °C, the enzyme inhibition reaction was recorded by measuring the absorbance of the microplate reader at 495 nm for 0, 3, 6, 9, 12, and 15 min.

[4] = 0.2 U/mL AchE, acetylthiocholine, 37 °C, mean of three experiments, read-out: AchE inhibitory activity IC50±SD

With “ꞵ-D-Glucopyranose, 1-[(2 Z)-2 methyl-2-butenoate] [Compound 5]” the IC50 (mushroom tyrosinase [1]) was 299 ± 7.86 µM and the IC50 [2, 4] was 388 ± 11.1 µM.
In the case of `C[C@@H]1O[C@@H](OC[C@H]2O[C@@H](Oc3cc(O)c4c(=O)cc(-c5ccc(O)cc5)oc4c3)[C@H](O)[C@@H](O)[C@@H]2O)[C@H](O)[C@H](O)[C@H]1O` [Compound 6, Apigenin 7-O-rutinoside], the IC50 (mushroom tyrosinase [1]) is reported as 32.1 µM and the IC50 [2, 4] is reported as 182 µM.
With `CCC(C)O[C@@H]1O[C@H](CO)[C@@H](O)[C@H](O)[C@H]1O` (stereo partly drawn) [Compound 4, 1-Methylpropyl ꞵ-D-glucopyranoside] the IC50 (mushroom tyrosinase [1]) was 412 ± 8.12 µM and the IC50 [2, 4] was 352 ± 9.03 µM.
Work on `C=C1C(=O)O[C@@H]2/C=C(/C)[C@H](O)C[C@@H](O)C(=C)C[C@H](OC(=O)/C(C)=C\C)[C@@H]12` [Compound 11, 3-Epi-hydroxyisonobilin] yielded an IC50 (mushroom tyrosinase [1]) of 286 ± 8.28 µM and an IC50 [2, 4] of 263 ± 11.2 µM.
For `C=C1C(=O)O[C@@H]2/C=C(/C)[C@@H](O)C[C@@H](O)C(=C)C[C@H](OC(=O)/C(C)=C/C)[C@@H]12` [Compound 8, 8-Tigloylhydroxyisonobilin], the IC50 (mushroom tyrosinase [1]) was 184 ± 7.12 µM and the IC50 [2, 4] was 225 µM.
In the case of `OC[C@H]1O[C@@H](OCCc2ccccc2)[C@H](O)[C@@H](O)[C@@H]1O` [Compound 3, Phenylethyl ꞵ-D-glucopyranoside], the IC50 (mushroom tyrosinase [1]) is reported as 196 ± 7.01 µM and the IC50 [2, 4] is reported as 281 ± 10.1 µM.
`O=c1cc(-c2ccc(O)cc2)oc2cc(O)cc(O)c12` [Compound 9, Apigenin] gave an IC50 [2] of 362 ± 10.1 µM.
Work on `COc1ccc(-c2cc(=O)c3c(O)c(OC)c(O)cc3o2)cc1` [Compound 15, 5,7-Dihydroxy-6-methoxy-2-(4-methoxyphenyl)-4H-1-benzopyran-4-one] yielded an IC50 (mushroom tyrosinase [1]) of 212 ± 6.76 µM and an IC50 [2, 4] of 190 µM.
`COc1ccc(-c2oc3cc(O[C@@H]4O[C@H](CO)[C@@H](O)[C@H](O)[C@H]4O)c(OC)c(O)c3c(=O)c2O)cc1` [Compound 7, Camaraside] was tested, and the IC50 (mushroom tyrosinase [1]) was 87.4 ± 5.67 µM and the IC50 [2, 4] was 232 ± 9.98 µM.
For `C=C1CC(OC(=O)C(C)=CC)C2C(C=C(C)C(O)CC1O)OC(=O)C2C` (stereo not shown) [Compound 13, 11,13-Dihydro-8-tigloylhydroxyisonobilin], the IC50 (mushroom tyrosinase [1]) was 146 µM, the “Type of tyrosinase inhibition” value (mushroom tyrosinase [3]; Lineweaver-Burk double reciprocal plot) was “uncompetitive” and the “Vmax in the presence of the inhibitor” value (mushroom tyrosinase [3]; inhibitor 53.52 µg/mL, L-tyrosine 1-0.125 mM, control Vmax 42.02 µM/min) was 27.25 µM/min. The IC50 [2, 4] was 245 ± 9.16 µM.
Compound `COc1cc2ccc(=O)oc2cc1O[C@@H]1O[C@H](CO)[C@@H](O)[C@H](O)[C@H]1O` [Compound 1, Scopolin] has an IC50 (mushroom tyrosinase [1]) of 46.8 ± 6.34 µM and an IC50 [2, 4] of 231 µM.
For `C=C1C[C@H](OC(=O)/C(C)=C\C)[C@H]2C(=C)C(=O)O[C@@H]2/C=C(/C)[C@@H](O)CC1=O` [Compound 12, Nobilinon A], the IC50 (mushroom tyrosinase [1]) was 314 ± 8.09 µM and the IC50 [2, 4] was 244 ± 9.11 µM.
For `C=C1C(=O)O[C@@H]2/C=C(/C)[C@@H](O)C[C@@H](O)C(=C)C[C@H](OC(=O)/C(C)=C\C)[C@@H]12` [Compound 10, Hydroxyisonobilin], the IC50 (mushroom tyrosinase [1]) was 188 ± 6.63 µM and the IC50 [2, 4] was 268 ± 12.1 µM.
In the case of `O=C(O)C[C@@H]1CCC(=O)[C@@H]1C/C=C\CCO[C@@H]1O[C@H](CO)[C@@H](O)[C@H](O)[C@H]1O` [Compound 2, Tuberonic acid glucoside], the IC50 (mushroom tyrosinase [1]) is reported as 192 ± 7.92 µM and the IC50 [2, 4] is reported as 343 ± 10 µM.
`C=C1C(=O)O[C@@H]2/C=C(/C)[C@@H](O)C/C=C(\C)C[C@H](OC(=O)/C(C)=C\C)[C@@H]12` [Compound 14, Nobilin] showed an IC50 (mushroom tyrosinase [1]) of 297 ± 7.23 µM and an IC50 ([2]; read-out: AchE inhibitory activity IC50±SD) of 304 µM.
